Molecules are shown by their SMILES. Numbered stars: 1 amine (or outer) side, 2 acyl side, 3 side chain; on linkers, the order of the positions; unused ones are H or OH. Side chains are listed from the residue outwards. Peptide text beside a SMILES is read from it. * marks the point of attachment. C20 diacid = O=C(O)CCCCCCCCCCCCCCCCCCC(=O)*; C18 diacid = O=C(O)CCCCCCCCCCCCCCCCC(=O)*; C16 diacid = O=C(O)CCCCCCCCCCCCCCC(=O)*; γGlu = O=C(O)[C@H](CCC(=O)[*:2])N[*:1]; AEEA = NCCOCCOCC(=O)O

The target in this assay is T1, glucagon receptor (Homo sapiens, UniProt P47871).
T1 construct: expressed in transfected cells
T1 sequence (P47871 26-477): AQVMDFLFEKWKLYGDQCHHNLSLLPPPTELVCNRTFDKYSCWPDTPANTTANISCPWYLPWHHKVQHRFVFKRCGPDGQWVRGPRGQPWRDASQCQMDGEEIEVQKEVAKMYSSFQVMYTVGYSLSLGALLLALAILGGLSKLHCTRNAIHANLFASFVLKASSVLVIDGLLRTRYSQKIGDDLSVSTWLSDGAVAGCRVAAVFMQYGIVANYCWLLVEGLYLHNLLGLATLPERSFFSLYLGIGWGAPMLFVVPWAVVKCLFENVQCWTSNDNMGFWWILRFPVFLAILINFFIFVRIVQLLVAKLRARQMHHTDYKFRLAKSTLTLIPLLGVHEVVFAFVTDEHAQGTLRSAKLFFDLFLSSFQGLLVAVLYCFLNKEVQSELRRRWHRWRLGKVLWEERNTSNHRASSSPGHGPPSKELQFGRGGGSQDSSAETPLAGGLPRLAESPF
Nature of the assay: Assay (I) Glucagon activity (cAMP biosensor, FLIPR). In kind it is cell-based.
With `CC(C)C[C@H](NC(=O)[C@H](Cc1c[nH]c2ccccc12)NC(=O)[C@H](CCCCNC(=O)CC[C@H](NC(=O)CC[C@H](NC(=O)COCCOCCNC(=O)COCCOCCNC(=O)CC[C@H](NC(=O)CCCCCCCCCCCCCCCCC(=O)O)C(=O)O)C(=O)O)C(=O)O)NC(=O)[C@@H](NC(=O)[C@H](Cc1ccccc1)NC(=O)[C@H](CC(=O)O)NC(=O)[C@H](CCC(N)=O)NC(=O)[C@H](C)NC(=O)[C@H](CCCNC(=N)N)NC(=O)[C@H](CCCNC(=N)N)NC(=O)[C@@H](NC(=O)[C@H](CC(=O)O)NC(=O)[C@H](CC(C)C)NC(=O)[C@H](Cc1ccc(O)cc1)NC(=O)[C@H](CCCCN)NC(=O)[C@H](CO)NC(=O)[C@H](Cc1ccc(O)cc1)NC(=O)[C@H](CC(=O)O)NC(=O)[C@H](CO)NC(=O)[C@@H](NC(=O)[C@H](Cc1ccccc1)NC(=O)[C@@H](NC(=O)CNC(=O)[C@H](CCC(N)=O)NC(=O)[C@H](CO)NC(=O)[C@@H](N)Cc1c[nH]cn1)[C@@H](C)O)[C@@H](C)O)C(C)C)C(C)C)C(=O)N[C@@H](CC(C)C)C(=O)N[C@@H](CO)C(=O)N[C@H](C(=O)O)[C@@H](C)O` [Example 30, N^ε24-[(4S)-4-carboxy-4-[[(4S)-4-carboxy-4-[[2-[2-[2-[[2-[2-[2-[[(4S)-4-carboxy-4-(17-carboxyheptadecanoylamino)butanoyl]amino]ethoxy]ethoxy]acetyl]amino]ethoxy]ethoxy]acetyl]amino]butanoyl]amino]butanoyl]-[Val16,Lys24,Leu27,Ser28]-Glucagon], it took 0.307 nM to reach a half-maximal effect (EC50). For the molecule `CC(C)C[C@H](NC(=O)[C@H](Cc1ccc(O)cc1)NC(=O)[C@H](CCCNC(=N)N)NC(=O)[C@H](CO)NC(=O)[C@@H](NC(=O)[C@H](CC(=O)O)NC(=O)[C@H](CO)NC(=O)[C@@H](NC(=O)[C@H](Cc1ccccc1)NC(=O)[C@@H](NC(=O)CNC(=O)[C@H](CCC(N)=O)NC(=O)[C@H](CO)NC(=O)[C@@H](N)Cc1c[nH]cn1)[C@@H](C)O)[C@@H](C)O)C(C)C)C(=O)N[C@@H](CCC(=O)O)C(=O)N[C@@H](CO)C(=O)N[C@@H](CCCNC(=N)N)C(=O)N[C@@H](CCCNC(=N)N)C(=O)N[C@@H](C)C(=O)N[C@@H](CCC(N)=O)C(=O)N[C@@H](CCC(=O)O)C(=O)N[C@@H](Cc1ccccc1)C(=O)N[C@H](C(=O)N[C@@H](CCCCNC(=O)CC[C@H](NC(=O)CC[C@H](NC(=O)COCCOCCNC(=O)COCCOCCNC(=O)CC[C@H](NC(=O)CCCCCCCCCCCCCCCCC(=O)O)C(=O)O)C(=O)O)C(=O)O)C(=O)N[C@@H](Cc1c[nH]c2ccccc12)C(=O)N[C@@H](CC(C)C)C(=O)N[C@@H](CCC(=O)O)C(=O)N[C@@H](CO)C(=O)N[C@H](C(=O)O)[C@@H](C)O)C(C)C` [Example 54, N^ε24-[(4S)-4-carboxy-4-[[(4S)-4-carboxy-4-[[2-[2-[2-[[2-[2-[2-[[(4S)-4-carboxy-4-(17-carboxyheptadecanoylamino)butanoyl]amino]ethoxy]ethoxy]acetyl]amino]ethoxy]ethoxy]acetyl]amino]butanoyl]amino]butanoyl]-[Val10,Arg12,Glu15,Glu21,Lys24,Glu27,Ser28]-Glucagon] (H-HSQGTFTSDVSRYLESRRAQEFVK([γGlu-γGlu-AEEA-AEEA-γGlu-C18 diacid])WLEST-OH), the EC50 (commonly the midpoint of the concentration-response curve) was 1.63 nM.

As to `CC(C)C[C@H](NC(=O)[C@H](CC(=O)O)NC(=O)[C@H](CC(C)C)NC(=O)[C@H](Cc1ccc(O)cc1)NC(=O)[C@H](CCCNC(=N)N)NC(=O)[C@H](CO)NC(=O)[C@H](Cc1ccc(O)cc1)NC(=O)[C@H](CC(=O)O)NC(=O)[C@H](CO)NC(=O)[C@@H](NC(=O)[C@H](Cc1ccccc1)NC(=O)[C@@H](NC(=O)CNC(=O)[C@H](CCC(N)=O)NC(=O)[C@H](CO)NC(=O)[C@@H](N)Cc1c[nH]cn1)[C@@H](C)O)[C@@H](C)O)C(=O)N[C@@H](CCCNC(=N)N)C(=O)N[C@@H](CCCNC(=N)N)C(=O)N[C@@H](C)C(=O)N[C@@H](CCC(N)=O)C(=O)N[C@@H](CC(=O)O)C(=O)N[C@@H](Cc1ccccc1)C(=O)N[C@H](C(=O)N[C@@H](CCCCNC(=O)CC[C@H](NC(=O)CC[C@H](NC(=O)COCCOCCNC(=O)COCCOCCNC(=O)CC[C@H](NC(=O)CCCCCCCCCCCCCCCCCCC(=O)O)C(=O)O)C(=O)O)C(=O)O)C(=O)N[C@@H](Cc1c[nH]c2ccccc12)C(=O)N[C@@H](CC(C)C)C(=O)N[C@@H](CC(C)C)C(=O)N[C@@H](CO)C(=O)N[C@H](C(=O)O)[C@@H](C)O)C(C)C` [Example 26, N^ε24-[(4S)-4-carboxy-4-[[(4S)-4-carboxy-4-[[2-[2-[2-[[2-[2-[2-[[(4S)-4-carboxy-4-(19-carboxynonadecanoylamino)butanoyl]amino]ethoxy]ethoxy]acetyl]amino]ethoxy]ethoxy]acetyl]amino]butanoyl]amino]butanoyl]-[Arg^12,Leu^16,Lys^24,Leu^27,Ser^28]-Glucagon] (H-HSQGTFTSDYSRYLDLRRAQDFVK([γGlu-γGlu-AEEA-AEEA-γGlu-C20 diacid])WLLST-OH), the EC50 was 1.07 nM. Against the preceding molecule, the EC50 is about 1.5-fold lower. The figure for `CC(C)C[C@H](NC(=O)[C@H](Cc1ccc(O)cc1)NC(=O)[C@H](CCCNC(=N)N)NC(=O)[C@H](CO)NC(=O)[C@H](Cc1ccc(O)cc1)NC(=O)[C@H](CC(=O)O)NC(=O)[C@H](CO)NC(=O)[C@@H](NC(=O)[C@H](Cc1ccccc1)NC(=O)[C@@H](NC(=O)CNC(=O)[C@H](CCC(N)=O)NC(=O)[C@H](CO)NC(=O)[C@@H](N)Cc1c[nH]cn1)[C@@H](C)O)[C@@H](C)O)C(=O)N[C@@H](CC(=O)O)C(=O)N[C@@H](C)C(=O)N[C@@H](CCCNC(=N)N)C(=O)N[C@@H](CCCNC(=N)N)C(=O)N[C@@H](C)C(=O)N[C@@H](CCC(N)=O)C(=O)N[C@@H](CC(=O)O)C(=O)N[C@@H](Cc1ccccc1)C(=O)N[C@H](C(=O)N[C@@H](CCCCNC(=O)CC[C@H](NC(=O)CC[C@H](NC(=O)CC[C@H](NC(=O)CC[C@H](NC(=O)CCCCCCCCCCCCCCC(=O)O)C(=O)O)C(=O)O)C(=O)O)C(=O)O)C(=O)N[C@@H](Cc1c[nH]c2ccccc12)C(=O)N[C@@H](CC(C)C)C(=O)N[C@@H](CC(C)C)C(=O)N[C@@H](CO)C(=O)N[C@H](C(=O)O)[C@@H](C)O)C(C)C` [Example 73, N^ε24-[(4S)-4-carboxy-4-[[(4S)-4-carboxy-4-[[(4S)-4-carboxy-4-[[(4S)-4-carboxy-4-(15-carboxypentadecanoylamino)butanoyl]amino]butanoyl]amino]butanoyl]amino]butanoyl]-[Arg12,Ala16,Lys24,Leu27,Ser28]-Glucagon] (H-HSQGTFTSDYSRYLDARRAQDFVK([γGlu-γGlu-γGlu-γGlu-C16 diacid])WLLST-OH) is 0.106 nM; for `CC(C)C[C@H](NC(=O)[C@H](CC(=O)O)NC(=O)[C@H](CC(C)C)NC(=O)[C@H](Cc1ccc(O)cc1)NC(=O)[C@H](CCCNC(=N)N)NC(=O)[C@H](CO)NC(=O)[C@H](Cc1ccc(O)cc1)NC(=O)[C@H](CC(=O)O)NC(=O)[C@H](CO)NC(=O)[C@@H](NC(=O)[C@H](Cc1ccccc1)NC(=O)[C@@H](NC(=O)CNC(=O)[C@H](CCC(N)=O)NC(=O)[C@H](CO)NC(=O)[C@@H](N)Cc1c[nH]cn1)[C@@H](C)O)[C@@H](C)O)C(=O)N[C@@H](CCCNC(=N)N)C(=O)N[C@@H](CCCNC(=N)N)C(=O)N[C@@H](C)C(=O)N[C@@H](CCC(N)=O)C(=O)N[C@@H](CC(=O)O)C(=O)N[C@@H](Cc1ccccc1)C(=O)N[C@H](C(=O)N[C@@H](CCCCNC(=O)COCCOCCNC(=O)COCCOCCNC(=O)CC[C@H](NC(=O)CC[C@H](NC(=O)CC[C@H](NC(=O)CCCCCCCCCCCCCCCCC(=O)O)C(=O)O)C(=O)O)C(=O)O)C(=O)N[C@@H](Cc1c[nH]c2ccccc12)C(=O)N[C@@H](CC(C)C)C(=O)N[C@@H](CC(C)C)C(=O)N[C@@H](CO)C(=O)N[C@H](C(=O)O)[C@@H](C)O)C(C)C` [Example 28, N^ε24-[2-[2-[2-[[2-[2-[2-[[(4S)-4-carboxy-4-[[(4S)-4-carboxy-4-[[(4S)-4-carboxy-4-(17-carboxyheptadecanoylamino)butanoyl]amino]butanoyl]amino]butanoyl]amino]ethoxy]ethoxy]acetyl]amino]ethoxy]ethoxy]acetyl]-[Arg^12,Leu^16,Lys^24,Leu^27,Ser^28]-Glucagon] (H-HSQGTFTSDYSRYLDLRRAQDFVK([AEEA-AEEA-γGlu-γGlu-γGlu-C18 diacid])WLLST-OH) it is 0.1 nM; for `CC(C)C[C@H](NC(=O)[C@H](Cc1ccc(O)cc1)NC(=O)[C@H](CCCCN)NC(=O)[C@H](CO)NC(=O)[C@H](Cc1ccc(O)cc1)NC(=O)[C@H](CC(=O)O)NC(=O)[C@H](CO)NC(=O)[C@@H](NC(=O)[C@H](Cc1ccccc1)NC(=O)[C@@H](NC(=O)CNC(=O)[C@H](CCC(N)=O)NC(=O)[C@H](CO)NC(=O)[C@@H](N)Cc1c[nH]cn1)[C@@H](C)O)[C@@H](C)O)C(=O)N[C@@H](CCC(=O)O)C(=O)N[C@@H](CO)C(=O)N[C@@H](CCCNC(=N)N)C(=O)N[C@@H](CCCNC(=N)N)C(=O)N[C@@H](C)C(=O)N[C@@H](CCC(N)=O)C(=O)N[C@@H](CC(=O)O)C(=O)N[C@@H](Cc1ccccc1)C(=O)N[C@H](C(=O)N[C@@H](CCCCNC(=O)CC[C@H](NC(=O)CC[C@H](NC(=O)COCCOCCNC(=O)COCCOCCNC(=O)CC[C@H](NC(=O)CCCCCCCCCCCCCCCCC(=O)O)C(=O)O)C(=O)O)C(=O)O)C(=O)N[C@@H](Cc1c[nH]c2ccccc12)C(=O)N[C@@H](CC(C)C)C(=O)N[C@@H](CCC(=O)O)C(=O)N[C@@H](CO)C(=O)N[C@H](C(=O)O)[C@@H](C)O)C(C)C` [Example 59, N^ε24-[(4S)-4-carboxy-4-[[(4S)-4-carboxy-4-[[2-[2-[2-[[2-[2-[2-[[(4S)-4-carboxy-4-(17-carboxyheptadecanoylamino)butanoyl]amino]ethoxy]ethoxy]acetyl]amino]ethoxy]ethoxy]acetyl]amino]butanoyl]amino]butanoyl]-[Glu15,Lys24,Glu27,Ser28]-Glucagon] it is 0.682 nM.

(Values after patent US9486506B2 (Novo Nordisk A/S, priority 2011, dated 2016).)
